Measurements published in patent publication US20240034761A1, “REGENERATION OF MAMMALIAN TISSUES USING SYNTHETIC IMMODULINS” (priority 2022, published 2024).
Marks after values point to notes of the source that are not given here. Peptide text beside a SMILES is read from it.

Assays:
[1] = tested on: THP1-Dual monocyte reporter cell line; test: THP1-Dual myeloid cell differentiation assay (PMA protocol); assay type: cell-based, human; details: PMA 24 h, then peptide 0.33 uM or 0.66 uM 24 h
Procedure, shortened: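 THP1-Dual monocytes were primed for 24 h with 100 ng/ml PMA, then given peptide (0.33 uM or 0.66 uM) for a further 24 h at 37 degrees C. CCL22 was measured in the supernatants. Adherent cells were stained for surface markers such as CD169, Clec9a or Clec12a with labeled anti-human antibodies.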

[2] = tested on: THP1-Dual monocyte reporter cell line; test: Adjuvant effect of helper molecules on immX3 peptide potency in THP1-Dual assay; assay type: cell-based, human; details: immX3 peptide 330 nM, no helper (buffer)
Description: Mammalian cell differentiation assays employed the THP1-Dual monocyte reporter cell line (Invivogen Inc, San Diego, CA) seeded at 2×10e5 cells per well in 96-well plates and cultured at 37 degrees C. in RPMI-1640 growth medium plus 10% fetal bovine serum and 1% penicillin/streptomycin. Cells were subsequently treated for 24 hours with 100 ng/ml Phorbol 12-myristate 13-acetate (PMA protocol; Cayman Chemical Company, Ann Arbor, MI). Peptide (0.33 uM or 0.66 uM, as indicated) was then added, and incubation continued for an additional 24 hours. Culture supernatants were assayed for CCL22. Plates with adherent cells were washed with PBS and assayed for immunoreactivity of surface markers such as CD169, Clec9a or Clec12a using fuorescent tag- or biotin-labeled anti-human antibodies purchased from Miltenyi Biotec (Auburn, CA) and the secondary detection reagent recommended by the manufacturer.
The THP1-Dual cell differentiation assay was carried out as described above in Example 2, using immX3 peptide (330 nM) in all samples plus the indicated helper or inhibitor molecule. Molecules were purched from Cayman Chemical Company (Ann Arbor, MI) or Sigma Chemical Company (St. Louis, MO). AU=arbitrary ELISA units. **p<0.01.

[3] = Plate binding of FITC-labelled heparin to immobilised biotinylated peptides; details: 400 ng peptide/well, 1 ug FITC-heparin, PBS; normalized to immX3 peptide binding = 100
Description: (§1) Effects of pH, PIP2 and size classes: Streptavidin-coated 96-well plates (G-Biosciences, St. Louis, MO) were pre-loaded with biotinylated peptides [see Example 1] at 400 ng/well, at room temperature for 60 minutes. The plate was washed with PBS buffer and then 1 ug FITC-labelled heparin or hyaluronic acid (FITC-HMW-HA) in 100 uL PBS buffer was added per well (all tests done in quadruplicate). Incubation proceeded for 90 minutes at room temperature, followed by two PBS washes. The plate was read in a standard laboratory fluorometer (488/525 nm exitation/[…]) and the counts normalized for immX3 peptide binding=100. Values statistically above background are shown in bold font. **p<0.05 versus immX3AVD.

[4] = Second binding experiment: FITC-HMW-HA binding with holotransferrin, pH and cold competitors; set-up: key to FITC-HMW-HA binding, +cold LMW-HA / FITC-HMW-HA binding, +cold HMW-HA: fluorescence counts normalized to peptide binding control = 100; details: holotransferrin 10 ug/well; for FITC-HMW-HA binding, +cold HMW-HA: HMW-HA 10 ug/well; for FITC-HMW-HA binding, +cold LMW-HA: LMW-HA hexamer 10 ug/well; for FITC-HMW-HA binding, +cold PIP2: excess PIP2 500 ng/well
Description: as §1
A second binding experiment was done as above, but using either 6 mM sodium phosphate buffer pH 7.4 or sodium citrate buffer pH 5.2 in the presence of FITC-HMW-HA (1.5 ug/well), holotransferrin (10 ug/well) and excess PIP2 (500 ng/well), LMW-HA (hexamer; 10 ug/well) or HMW-HA (10 ug/well). **p<0.05 versus peptide binding control (=100);

CC(C)[C@H](NC(=O)[C@H](C)NC(=O)[C@H](Cc1c[nH]c2ccccc12)NC(=O)[C@H](CS)NC(=O)[C@H](Cc1ccccc1)NC(=O)CNC(=O)[C@H](CCCNC(=N)N)NC(=O)[C@H](CCCCN)NC(=O)[C@H](CCCNC(=N)N)NC(=O)CNC(=O)[C@H](CCCCN)NC(=O)[C@H](CO)NC(=O)[C@@H]1CCCN1C(=O)[C@H](CCCNC(=N)N)NC(=O)[C@H](CS)NC(=O)[C@H](CCC(N)=O)NC(=O)[C@H](CCCCN)NC(=O)[C@H](CCCCN)NC(=O)[C@H](CCCCN)NC(=O)[C@H](Cc1ccc(O)cc1)NC(=O)[C@H](Cc1ccccc1)NC(=O)CNC(=O)[C@H](CCCCN)NC(=O)[C@@H](N)CCCCN)C(=O)N[C@@H](CC(=O)O)C(=O)O [immX3AVD] (H-KKGFYKKKQCRPSKGRKRGFCWAVD-OH)
CD169+ (AU) ([1]; relative to immX3AVD = 100): 100 AU
Clec12A(AU) ([1]; relative to immX3AVD = 100): 100 AU
CCL22 ([1]; culture supernatant): 282.4 ± 18.4 pg/mL
CD169 (AU) [2]: 100.0 ± 4.9 AU
Heparin binding (fluorescence counts) [3]: 100.0 ± 4.7
FITC-HMW-HA binding, CONTROL ([4]; pH 5.2): 140.0 ± 16.7**
FITC-HMW-HA binding, +cold HMW-HA ([4]; pH 5.2): 12.5 ± 7.1**
FITC-HMW-HA binding, +cold LMW-HA ([4]; pH 5.2): 100.6 ± 15.9
FITC-HMW-HA binding, +cold PIP2 ([4]; pH 5.2): 92.2 ± 29.4
FITC-HMW-HA binding, +cold HMW-HA ([4]; pH 7.4): 18.5 ± 3.7**
FITC-HMW-HA binding, +cold LMW-HA ([4]; pH 7.4): 92.6 ± 11.8**
FITC-HMW-HA binding, +cold PIP2 ([4]; pH 7.4): 10.4 ± 8.2**
FITC-HMW-HA binding, CONTROL ([4]; pH 7.4, peptide binding control = 100): 100.0 ± 8.3
